Reference: patent US5492924A, “Phorbine derivatives and their use in the diagnosis and therapy of cancer” (Fox Chase Cancer Center, priority 1993, dated 1996)

Legend:
EMT-6 tumors = assay: EMT-6 tumor regrowth assay after PDT; type: in vivo, C.B17/Icr scid mice; conditions: for Regrowth time (time to grow to two times the treatment volume): 300J of 670 nm one hr after administration
Protocol: (§1) Photosensitizer efficacy was measured with two different tumor models. Solid EMT-6 tumors (~0.1 cm^3) growing on the backs of C.B17/Icr scid mice were exposed to 300J of 670 nm light one hour after the iv administration of Ph4-OH. Light was generated by a laser, transported to the tumor-bearing mouse via an optical fiber and focused onto the tumor surface through a diffusing lens. The light dose rate at the tumor surface was 200-400 mW/cm^2 and the field size encompassed the tumor cross section. […] EMT-6 tumor response was quantified by two different assays. At various times after PDT treatment, animals were sacrified, tumors were removed in toto from the animal and mechanically disrupted. Tumor cells were released by an enzyme digestion procedure. Released tumor cells were plated into Petri dishes for colony forming assays.
Tumor response to PDT was also quantified by tumor regrowth assay. The volumes of both untreated and PDT-treated tumors in animals were estimated from caliper measurements made three times a week. Tumor response in vivo was characterized by acute inflammatory reaction observed on days 1 and 2 after treatment followed by tumor volume shrinkage and eventual cure or regrowth. These responses from individual tumors were quantified in days after treatment required for tumors to reach two times their treatment volume. […] Tumor response is a function of photosensitizer dosage. […] In this assay, some tumor cures are consistently observed when growth delay times are 15 days and greater.
TIME FOR EMT-6 TUMORS TO GROW TO TWO
TIMES THE TREATMENT VOLUME AFTER 300J
OF 670 NM DELIVERED ONE HR AFTER I.V.
PHOTOSENSITIZER ADMINISTRATION

EMT-6 mouse tumor cells [1] = assay: Photosensitizing effectiveness with EMT-6 tumor cells in vitro (photoinactivation); type: cell-based; conditions: for Photoinactivation rate (1/D50): 670 nm (pheophorbide) or 750 nm (bacteriopheophorbide), one hour exposure
Protocol: EMT-6 mouse tumor cells were exposed in slowly-stirred suspension cultures to various concentrations of Ph6-OH, Ph4-OH and BPh4-OH for one hour prior to illumination with graded light doses of specific wavelength. The pheophorbide and bacteriopheophorbide compounds were illuminated with 670 and 750 nm light, respectively. Illuminated cell populations were plated into Petri dishes containing appropriate media for colony forming assays. The surviving fraction (SF) of cells after various PDT treatments was computed from the ratio, [plating efficiency (treated cells)]/[plating efficiency (control cells)]. For each photosensitizer dosage investigated,survival curves of log SF versus light dose were constructed and analyzed. The light dose required to kill 50%, 90% and 99% of tumor cell populations (D50, D10 and D01) were determined. The reciprocal of light dose required to kill 50% of a tumor cell population (1/D50) was used as a photoinactivation rate for each concentration and as a basis for comparison of photosensitizer efficacy. Inactivation rates for the various photosensitizing agents activated with 630 (Photofrin® ), 670 (Ph6-OH) and 750 (BPh4-OH) nm light are shown in the accompanying Figure. Rates of photoinactivation and relative effectiveness of the pheophorbide and bacteriopheophorbide compounds compared to Photofrin®are given in Table C. The inactivation rate for Photofrin® was extrapolated from data generated at much higher drug concentrations utilizing the same experimental protocol. The relative effectiveness of Ph4-OH and BPh4-OH are approximately 800X and approximately 1150X, respectively.
For each concentration of photosensitizer compound studied, there was a threshold dose of light below which little or no cell killing occurred. […] For example, for PH6-OH at 0.1, 0.3 and 0.5 μM, the threshold light dose was 0.75, 0.18 and 0.08J/cm^2, respectively.

EMT-6 tumor cells = assay: Plating efficiency (colony forming assay) of EMT-6 tumor cells from tumors treated in vivo by PDT; set-up: species or system C.B17/Icr scid mice; conditions: for Plating efficiency, excision at 24 hr / Plating efficiency, immediate excision: 300J of 670 nm light
Protocol: as §1
IN VITRO PLATING EFFICIENCIES OF EMT-6
TUMOR CELLS FROM TUMORS TREATED IN VIVO
BY PDT WITH 300J OF 670 NM LIGHT

[2] = tested on: Dunning prostate carcinomas (R3327-AT); assay: Tumor response and cure of Dunning prostate carcinomas after PDT; type: in vivo, Fischer X Copenhagen rats
Text: Tumor response and cure was also investigated with 4-5 cm^3 Dunning prostate carcinomas (R3327-AT) growing in Fischer X Copenhagen rats. These tumors were illuminated by laser light delivered by a laterally-diffusing optical fiber applicator which contained seven fibers in an hexagonal array of equilateral triangles with 0.9 cm spacing.

EMT-6 mouse tumor cells [3] = assay: Photosensitizer drug uptake into EMT-6 tumor cells; type: cell-based; conditions: for Initial binding rate: EMT-6
Protocol: (§2) EMT-6 mouse tumor and UNA mouse endothelial cells were exposed to various concentrations of the photosensitizer compounds of the invention in slowly-stirred suspension cultures. […] Cells were lysed and solubilized by mixing 1 mL of cell suspension with 1 mL 4% Triton X-100. After 2 hours of extraction, samples were mixed with 2 mL 95% EtOH and photosensitizer levels quantified by spectrofluorometry using Eex =400 nm and Eem =670 nm. […] For both cell lines, uptake is dependent upon photosensitizer concentration in the media and the larger volume tumor cells show the higher rates of uptake. If drug uptake rate is normalized to a standard cell volume, EMT-6 tumor cells bind the photosensitizer at 1.25 times that of UNA endothelial cells.

[4] = tested on: UNA mouse endothelial cells; assay: Photosensitizer drug uptake into UNA endothelial cells; type: cell-based
Protocol: as §2

[5] = .3 μM, compared to Photofrin (= 1)

## C=Cc1c(C)c2cc3nc(c4c5[nH]c(cc6nc(cc1[nH]2)C(C)=C6CC)c(C)c5C(=O)C4C(=O)OC)C(CCC(=O)NCCCCCCO)C3C (stereo not shown) [Ph6-OH, 9-Ethenyl-14-ethyl-21-(methoxycarbonyl)-4,8,13,18-tetramethyl-20-oxo-N-(6-hydroxyhexyl)-3-phorbinepropanamide]
EMT-6 tumors; 0.60 mg/kg i.v.
  Regrowth time (time to grow to two times the treatment volume): 4.7 ± 0.7 days
EMT-6 tumors; 1.00 mg/kg i.v.
  Regrowth time (time to grow to two times the treatment volume): 7.9 ± 1.3 days
EMT-6 tumors; 3.00 mg/kg i.v.
  Regrowth time (time to grow to two times the treatment volume): 25.5 ± 2.9 days
EMT-6 mouse tumor cells [1]; 0.1 μM
  Threshold light dose below which little or no cell killing occurred: 0.75 J/cm^2
EMT-6 mouse tumor cells [1]; 0.3 μM
  Threshold light dose below which little or no cell killing occurred: 0.18 J/cm^2
EMT-6 mouse tumor cells [1]; 0.5 μM
  Threshold light dose below which little or no cell killing occurred: 0.08 J/cm^2
EMT-6 mouse tumor cells [1]; .3 μM
  Photoinactivation rate (1/D50): 5.10 (J/cm^2)^-1
EMT-6 mouse tumor cells [1]; [5]
  Relative effectiveness: 567

## CCC1c2cc3[nH]c4c(c3C)C(=O)C(C(=O)OC)c4c3nc(cc4[nH]c(cc(n2)C1C)c(C(C)=O)c4C)C(C)C3CCC(=O)NCCCCO (stereo not shown) [BPh4-OH, 9-Acetyl-14-ethyl-13,14-dihydro-21-(methoxycarbonyl)-4,8,13,18-tetramethyl-20-oxo-N-(4-hydroxybutyl)-3-phorbinepropanamide]
EMT-6 mouse tumor cells [1]; .3 μM
  Photoinactivation rate (1/D50): 10.4 (J/cm^2)^-1
EMT-6 mouse tumor cells [1]; [5]
  Relative effectiveness: 1156
EMT-6 mouse tumor cells [1]; compared to Photofrin
  Relative effectiveness: approximately 1150 X

## C=Cc1c(C)c2cc3nc(c4c5[nH]c(cc6nc(cc1[nH]2)C(C)=C6CC)c(C)c5C(=O)C4C(=O)OC)C(CCC(=O)NCCCCO)C3C (stereo not shown) [Ph4-OH, 9-Ethenyl-14-ethyl-21-(methoxycarbonyl)-4,8,13,18-tetramethyl-20-oxo-N-(4-hydroxybutyl)-3-phorbinepropanamide]
EMT-6 tumor cells; 1 mg/kg iv
  Plating efficiency, excision at 24 hr: 0.001 ± 0.001
  Plating efficiency, immediate excision: 0.55 ± 0.07
EMT-6 tumor cells; 2 mg/kg iv
  Plating efficiency, excision at 24 hr: ≤ 0.0001
  Plating efficiency, immediate excision: 0.48 ± 0.09
EMT-6 tumor cells; 24 hr after PDT, in words
  Tumor cell plating efficiency when tumors excised 24 hr after PDT: decreased dramatically in proportion to photosensitizer concentration and light dose
EMT-6 tumor cells; immediately after PDT, in words
  Tumor cell killing when tumors excised immediately after PDT: little or no killing observed
EMT-6 tumor cells; relative to Photofrin, photosensitizer and light doses
  Potency relative to Photofrin for producing same extent of tumor cell kill in vivo: at least fifty times more potent
EMT-6 tumors; 0.45 mg/kg i.v.
  Regrowth time (time to grow to two times the treatment volume): 4.3 ± 0.4 days
EMT-6 tumors; 0.75 mg/kg i.v.
  Regrowth time (time to grow to two times the treatment volume): 8.6 ± 0.5 days
EMT-6 tumors; 1.00 mg/kg i.v.
  Regrowth time (time to grow to two times the treatment volume): 12.4 ± 0.6 days
EMT-6 tumors; 1.50 mg/kg i.v.
  Regrowth time (time to grow to two times the treatment volume): > 22.0 days
EMT-6 tumors; 300J of 670 nm light, in words
  Tumor response (compared with Ph6-OH): superior tumor response
EMT-6 tumors; relative to Photofrin, photosensitizer dosage and light dose
  Potency relative to Photofrin for equal tumor growth delay: at least fifty times more potent
[2]; 2 mg/kg iv, 400J of 670 nm light one hour after administration, 4-5 cm^3 tumors
  Tumor necrosis and response: Complete tumor necrosis and response
[2]; relative to Photofrin
  Potency relative to Photofrin for inducing tumor necrosis and cure: at least eighty times more potent
EMT-6 mouse tumor cells [1]; .3 μM
  Photoinactivation rate (1/D50): 7.30 (J/cm^2)^-1
EMT-6 mouse tumor cells [1]; [5]
  Relative effectiveness: 811
EMT-6 mouse tumor cells [1]; compared to Photofrin
  Relative effectiveness: approximately 800 X
EMT-6 mouse tumor cells [3]; 0.5 μM
  Initial binding rate: 0.097 μg/10^6 cells/hr
EMT-6 mouse tumor cells [3]; 1.0 μM
  Initial binding rate: 0.068 μg/10^6 cells/hr
EMT-6 mouse tumor cells [3]; ratio EMT-6/UNA
  Uptake rate normalized to standard cell volume, EMT-6 tumor cells relative to UNA endothelial cells: 1.25 times
[4]; 0.5 μM
  Initial binding rate: 0.067 μg/10^6 cells/hr
[4]; 1.0 μM
  Initial binding rate: 0.038 μg/10^6 cells/hr
